Molecular target: T1, Regulator of G-protein signaling 16 (Homo sapiens, UniProt O15492)
T1 sequence (O15492 whole entry): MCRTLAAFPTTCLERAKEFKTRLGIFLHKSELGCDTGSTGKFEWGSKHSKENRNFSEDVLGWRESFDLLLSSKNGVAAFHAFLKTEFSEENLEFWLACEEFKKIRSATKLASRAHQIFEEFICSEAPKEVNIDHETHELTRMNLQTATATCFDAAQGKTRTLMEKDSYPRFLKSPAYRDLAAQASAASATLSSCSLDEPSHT
Assay: RGS16-Galphao binding modulators, SAR follow-up, biochemical, multiplexed bead flow cytometry, SAR compounds (AID 2298)

Ki | SMILES
20 nM | NS(=O)(=O)c1ccc(N=NCc2ccc(O)c(O)c2O)c([N+](=O)[O-])c1 [4-[[(E)-(2,3-dihydroxy-4-oxo-1-cyclohexa-2,5-dienylidene)methyl]hydrazo]-3-nitrobenzenesulfonamide]
100 nM | O=C1C(Cl)=C(N2CCCCC2)C(=O)C(Cl)=C1c1cnc(N2CCCCC2)s1 [MLS000550549]
